Laboratory results reported in US12024506B2, “Compounds” (Oxford University Innovation Limited, priority 2018, dated 2024).

How the values were obtained:
[1] = molecular target: T1, GST-human KRas166 (G12V) GPPNHP (Homo sapiens, UniProt P01116, G12V); assay: KRas small-molecule screening by SPR (Biacore T200); format: binding; details: compound 100 uM, 5% DMSO buffer; immobilised GST-KRas166 (G12V) GPPNHP
T1 construct: made in house; host or cells: E. coli C41(DE3)
Summary of the method: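 GST-KRas166 G12V loaded with GPPNHP, captured on anti-GST CM5 chip at 10,000–15,000 RU, GST reference channel. Compounds run at 100 uM in buffer with 100 mM NaCl, 5 mM MgCl2, 5% DMSO, with DMSO solvent correction; Rmax for 1:1 binding taken as 63 RU.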

[2] = test system: H358 cells (ATCC CRL-5807); assay: Cell viability assay 1 (CellTiter-Glo), H358 cells; format: cell-based; details: Homo sapiens, NCI-H358, 48 h, first value of the cell, read-out: Cell Viability H358 (concentration that decreases cell viability by 50%)
Experimental: (§1) Cells (A549 ATCC CCL-185) are cultured in Dulbecco's Modified Eagle's Medium plus 10% foetal calf serum and 2 mM L-glutamine at 37° C., 5% CO2. Cells are plated onto white clear bottom 96-well plates (5000 cells/well in 200 μl media) and left to adhere overnight at 37° C., 5% CO2. Next day, test compound (1 μl at 200× concentration in 100% DMSO) is added to give final test compound concentration 1× in 0.5% DMSO. After 48 h of incubation at 37° C., 5% CO2, 20 μl CellTiter-Glo reagent (Promega G7572) is added into each well. Plates are incubated at room temperature with shaking for 30 min and then luminescence is read using a PheraStar plate reader. The concentration of compounds that decrease cell viability by 50% is calculated from dose response curves generated using Dotmatics data analysis software.
In the H358 cell assay, cells (ATCC CRL-5807) are cultured in RPMI-1640 medium plus 10% foetal calf serum and 2 mM L-glutamine at 37° C., 5% CO2.

[3] = test system: DLD1 cells (ATCC CCL-221); assay: Cell viability assay 1 (CellTiter-Glo), DLD1 cells; format: cell-based; details: Homo sapiens, DLD-1 cells, 48 h, second value of the cell, read-out: Cell Viability DLD-1 (concentration that decreases cell viability by 50%)
Experimental: as §1
In the DLD1 cell assay, cells (ATCC CCL-221) are cultured in RPMI-1640 medium plus 10% foetal calf serum and 2 mM L-glutamine at 37° C., 5% CO2.

Structure (SMILES): COc1nc(-c2cccc3c2OCCO3)ccc1Nc1cccc(C(=O)NCC2CCN(Cc3ccccc3)CC2)c1 [Example 181, N-(1-Benzyl-piperidin-4-ylmethyl)-3-[6-(2,3-dihydro-benzo[1,4]dioxin-5-yl)-2-methoxy-pyridin-3-ylamino]-benzamide]
- SPR Response Units [1]: 149 Response Units
- IC50 [2]: 4.3 µM
- IC50 [3]: 1.8 µM

Structure (SMILES): COc1nc(-c2cccc3c2OCCO3)ccc1Nc1cccc(CNCC2CCN(C(C)=O)CC2)c1 [Example 191, 1-[4-({3-[6-(2,3-Dihydro-benzo[1,4]dioxin-5-yl)-2-methoxy-pyridin-3-ylamino]-benzylamino}-methyl)-piperidin-1-yl]-ethanone]
- SPR Response Units [1]: 327 Response Units
- IC50 [2]: 91.8 µM
- IC50 [3]: 7.9 µM

Structure (SMILES): COc1cccc(-c2cccc3c2OC(CNC(=O)c2ccc(OCCN(C)C)cc2F)CO3)n1 (stereo not drawn) [Example 38, 4-(2-Dimethylamino-ethoxy)-2-fluoro-N-[8-(6-methoxy-pyridin-2-yl)-2,3-dihydro-benzo[1,4]dioxin-2-ylmethyl]-benzamide]
- SPR Response Units [1]: 335 Response Units
- IC50 [2]: 58 µM
- IC50 [3]: 3.6 µM

Structure (SMILES): COc1nc(-c2cccc3c2OCCO3)ccc1Nc1cccc(CNCc2cc[nH]c(=O)c2)c1 [Example 193, 4-({3-[6-(2,3-Dihydro-benzo[1,4]dioxin-5-yl)-2-methoxy-pyridin-3-ylamino]-benzylamino}-methyl)-1H-pyridin-2-one]
- SPR Response Units [1]: 388 Response Units
- IC50 [2]: 52.5 µM
- IC50 [3]: 14.8 µM

Structure (SMILES): COc1nc(-c2cccc3c2OC(CNC(=O)C2CCOCC2)CO3)ccc1Nc1ccc(CNCc2ccncc2)cc1 (stereo not drawn) [Example 119, Tetrahydro-pyran-4-carboxylic acid {8-[6-methoxy-5-(4-{[(pyridin-4-ylmethyl)-amino]-methyl}-phenylamino)-pyridin-2-yl]-2,3-dihydro-benzo[1,4]dioxin-2-ylmethyl}-amide]
- SPR Response Units [1]: 349 Response Units
- IC50 [2]: 10 µM
- IC50 [3]: 11.2 µM

Structure (SMILES): CN(C)Cc1cccc(CN2CCN(c3cccc4c3OCCO4)CC2)c1 [Example 157, {3-[4-(2,3-Dihydro-benzo[1,4]dioxin-5-yl)-piperazin-1-ylmethyl]-benzyl}-dimethyl-amine]
- SPR Response Units [1]: 7 Response Units
- IC50 [2]: > 150 µM
- IC50 [3]: > 150 µM

Structure (SMILES): COc1nc(-c2cccc3c2OCCO3)ccc1Nc1cccc(CN(C)C)c1 [Example 55, [6-(2,3-dihydro-benzo[1,4]dioxin-5-yl)-2-methoxy-pyridin-3-yl]-(3-dimethylaminomethyl-phenyl)-amine]
- SPR Response Units [1]: 130 Response Units
- IC50 [2]: 8 µM
- IC50 [3]: 9.2 µM

Structure (SMILES): COc1nc(-c2cccc3c2OCCO3)ccc1Nc1ccc(C(=O)NCC2CCNC(=O)C2)cc1 (stereo not drawn) [Example 196, 4-[6-(2,3-Dihydro-benzo[1,4]dioxin-5-yl)-2-methoxy-pyridin-3-ylamino]-N-(2-oxo-piperidin-4-ylmethyl)-benzamide]
- SPR Response Units [1]: 194 Response Units
- IC50 [2]: 30.6 µM
- IC50 [3]: 7.2 µM

Structure (SMILES): COc1nc(-c2cccc3c2OCCO3)ccc1Nc1cccc(CNCC2CCC(=O)N2)c1 (stereo not drawn) [Example 192, 5-({3-[6-(2,3-Dihydro-benzo[1,4]dioxin-5-yl)-2-methoxy-pyridin-3-ylamino]-benzylamino}-methyl)-pyrrolidin-2-one]
- SPR Response Units [1]: 321 Response Units
- IC50 [2]: > 150 µM
- IC50 [3]: 11.4 µM

Structure (SMILES): COc1nc(-c2cccc3c2OCCO3)ccc1Nc1cccc(CN2CCN(Cc3cn[nH]c3)CC2)c1 [Example 208, [6-(2,3-Dihydro-benzo[1,4]dioxin-5-yl)-2-methoxy-pyridin-3-yl]-{3-[4-(1H-pyrazol-4-ylmethyl)-piperazin-1-ylmethyl]-phenyl}-amine]
- SPR Response Units [1]: 1266 Response Units
- IC50 [2]: 17.4 µM
- IC50 [3]: 5.8 µM

Structure (SMILES): COc1nc(-c2cccc3c2O[C@@H](CNC(=O)C2CCOCC2)CO3)ccc1Nc1cccc(CN(C)C)c1 [Example 69]
- SPR Response Units [1]: 128 Response Units
- IC50 [2]: 21 µM
- IC50 [3]: 21.5 µM

Structure (SMILES): CN1CCN(Cc2ccc(C(=O)NCC3COc4cccc(-c5cn(Cc6ccccc6)cn5)c4O3)o2)CC1 (stereo not drawn) [Example 138, 5-(4-Methyl-piperazin-1-ylmethyl)-furan-2-carboxylic acid[8-(1-benzyl-1H-imidazol-4-yl)-2,3-dihydro-benzo[1,4]dioxin-2-ylmethy]-amide]
- SPR Response Units [1]: 238 Response Units
- IC50 [2]: > 100 µM
- IC50 [3]: 18 µM

Structure (SMILES): COc1cccc(-c2cccc3c2OC(CNC(=O)c2ccc(OCCN(C)C)cc2)CO3)n1 (stereo not drawn) [Example 39, 4-(2-Dimethylamino-ethoxy)-N-[8-(6-methoxy-pyridin-2-yl)-2,3-dihydro-benzo[1,4]dioxin-2-ylmethyl]-benzamide]
- SPR Response Units [1]: 127 Response Units
- IC50 [2]: 79 µM
- IC50 [3]: 5 µM

Structure (SMILES): COc1nc(-c2cccc3c2OCCO3)ccc1Nc1cccc(CNCc2cn[nH]c2)c1 [Example 126, [6-(2,3-Dihydro-benzo[1,4]dioxin-5-yl)-2-methoxy-pyridin-3-yl]-(3-{[(1H-pyrazol-4-ylmethyl)-amino]-methyl}-phenyl)-amine]
- SPR Response Units [1]: 210 Response Units
- IC50 [2]: 5.4 µM
- IC50 [3]: 5.3 µM

Structure (SMILES): COc1nc(-c2cccc3c2OCCO3)ccc1Nc1cccc(C(=O)NCC2CCC(=O)NC2)c1 (stereo not drawn) [Example 164, 3-[6-(2,3-Dihydro-benzo[1,4]dioxin-5-yl)-2-methoxy-pyridin-3-ylamino]-N-(6-oxo-piperidin-3-ylmethyl)-benzamide]
- SPR Response Units [1]: 136 Response Units
- IC50 [2]: 25.9 µM
- IC50 [3]: 4.8 µM

Structure (SMILES): COc1nc(-c2cccc3c2O[C@H](CNC(=O)C2CCOCC2)CO3)ccc1Nc1cccc(CN(C)C)c1 [Example 112, Tetrahydro-pyran-4-carboxylic acid {(R)-8-[5-(3-dimethylamino-methyl-phenylamino)-6-methoxy-pyridin-2-yl]-2,3-dihydro-benzo[1,4]dioxin-2-ylmethyl}-amide]
- SPR Response Units [1]: 90 Response Units
- IC50 [2]: 18.8 µM
- IC50 [3]: 16.3 µM

Structure (SMILES): COc1nc(-c2cccc3c2OCCO3)ccc1Nc1cccc(CN2CCCC(C(N)=O)C2)c1 (stereo not drawn) [Example 200, 1-{3-[6-(2,3-Dihydro-benzo[1,4]dioxin-5-yl)-2-methoxy-pyridin-3-ylamino]-benzyl}-piperidine-3-carboxylic acid amide]
- SPR Response Units [1]: 424 Response Units
- IC50 [2]: 1.5 µM
- IC50 [3]: 8.6 µM

Structure (SMILES): COc1nc(-c2cccc3c2OCCO3)ccc1Nc1ccc(CNCC2CCC(=O)NC2)cc1 (stereo not drawn) [Example 172, 5-({4-[6-(2,3-Dihydro-benzo[1,4]dioxin-5-yl)-2-methoxy-pyridin-3-ylamino]-benzylamino}-methyl)-piperidin-2-one]
- SPR Response Units [1]: 174 Response Units
- IC50 [2]: 23.3 µM
- IC50 [3]: 4.7 µM

Structure (SMILES): COc1nc(-c2cccc3c2OCCO3)ccc1Nc1cccc(C(=O)NCC2CCN(C(C)=O)CC2)c1 [Example 167, N-(1-Acetyl-piperidin-4-ylmethyl)-3-[6-(2,3-dihydro-benzo[1,4]dioxin-5-yl)-2-methoxy-pyridin-3-ylamino]-benzamide]
- SPR Response Units [1]: 73 Response Units
- IC50 [2]: 15.8 µM
- IC50 [3]: 3.5 µM

Structure (SMILES): COc1nc(-c2cccc3c2OCCO3)ccc1Nc1cccc(CNCc2cc[nH]n2)c1 [Example 209, [6-(2,3-Dihydro-benzo[1,4]dioxin-5-yl)-2-methoxy-pyridin-3-yl]-(3-{[(1H-pyrazol-3-ylmethyl)-amino]-methyl}-phenyl)-amine]
- SPR Response Units [1]: 310 Response Units
- IC50 [2]: 13.4 µM
- IC50 [3]: 14.7 µM
